# Legend:
# HIV-1LAI [1] = test: Inhibition of HIV infection of human PBMCs (infectious virus production, read out on LC5-RIC cells); assay type: cell-based; conditions: human PBMCs exposed to HIV-1LAI, mean ± SD
# Description: To evaluate anti-HIV efficacies of test compounds in primary human target cells, stimulated PBMCs were seeded in 96-well plates at a density of 500,000 cells per well, different #7concentrations of the compound (serial dilutions) and virus inoculum (MOI of 0.5) added to the PBMCs and cultures incubated for 48 h. Infectious virus production was quantified by transferring 35 µl of supernatant from the PBMC cultures to LC5-RIC cells, seeded in black 96-well plates one day earlier. LC5-RIC cultures were then incubated for 72 h and analysed for DsRed1 reporter expression and anti-HIV activity calculated as described for the EASY-HIT assay.
# HIV-1LAI [2] = test: Photostability of anti-HIV activity (24 h illumination vs dark, EASY-HIT read-out); assay type: cell-based; conditions: 24 h illumination; compounds at IC90; LC5-RIC
# Description: Figure 1 Profiling of photostability of anti-HIV activity of Aureothin and synthetic Aureothin-derivatives. Anti-HIV activity of compound samples illuminated for 24 h were normalised to anti-HIV activity of samples of the same compound kept in the dark. Anti-HIV activity was measured by quantifying the amounts of infectious virus produced by HIV-1LAI exposed LC5-RIC cells treated with compounds at IC90 concentrations (Supplementary Table S1). […] Shown are means of at least three independent experiments with biological triplicates (n ≥ 3; m = 3) and the standard error of the mean (SEM) indicated.
# LC5-RIC cells were plated as described for the EASY-HIT assay. […] Plates were incubated either in the dark or under constant illumination with a commercially available desk lamp (2X Philips Master PL-S-9W/840/2 P, 30 cm between light source and compounds) for 24 h at room temperature. For analysis of anti-HIV activity, compound samples were transferred to LC5-RIC cells and their anti-HIV activity determined by measuring compound effects on infectious virus production with the EASY-HIT assay. Relative photostability was calculated by normalizing the anti-HIV activity of the illuminated compounds to the antiviral activity of compounds kept in the dark.
# HIV-1LAI [3] = test: EASY-HIT assay: infectious virus production by LC5-RIC reporter cells exposed to HIV-1LAI; assay type: cell-based
# Description: To identify natural compounds with anti-HIV activity we screened a collection of 10,000 natural compounds: Anti-HIV activity was evaluated by determining compound effects on infectious virus production by LC5-RIC cells which are highly susceptible for HIV and contain a DsRed1-encoding reporter gene activated by HIV-infection[6]–[8]. For screening, cultures of LC5-RIC reporter cells were first exposed to virus in the presence of the compound (first-step of the assay). Subsequently, supernatants of these cultures were transferred to secondary plates with uninfected LC5-RIC cells. The fluorescent signal of the cultures in the secondary plates served as a measure of compound effects on infectious virus production.
# Anti-HIV activities of compounds were profiled in LC5-RIC cells with the EASY-HIT assay as described in[6]. Briefly, LC5-RIC cells were first exposed to virus and compounds (first step of the assay). Compound effects on infectious virus production were determined by transferring aliquots of supernatants of compound-treated cultures to secondary plates and measurement of fluorescent signal intensities in secondary plates after 72 h (second step of the assay). Fluorescent signal intensities determined for compound-treated cultures were normalized to those determined for untreated virus-exposed cultures.
# LC5-RIC cells = test: CellTiter-Glo 2.0 cell viability assay in LC5-RIC cells; assay type: cell-based
# Description: The following assays were used to profile cell safety of compound treatment in HIV-exposed cultures (LC5-RIC or PBMC): (1) CellTox^TM Green Cytotoxicity Assay, Promega, measures binding of a fluorescent dye to DNA of cells with impaired membrane integrity; (2) CellTiter-Glo® 2.0 Assay, Promega, which measures the amount of ATP in viable cells after lysis using an assay with luminescence read-out. Cells were plated into black 96-well plates followed by overnight incubation at 37 °C, 5% CO2. Compounds dissolved in DMSO were screened at multiple concentrations from 0.6 to 10,000 nM at a final DMSO concentration of 0.04% followed by additional 48 h incubation. Both assays were performed according to manufacturer’s recommendations and consecutively in the above mentioned order. Cells were washed once with PBS between the assays.
# HIV-2 = system: HIV-2; parameters: method as in PMID 22293827, PMID 10465070; conditions: virus intrinsically resistant; cited from earlier work
# [4] = system: integrated proviral HIV-1 DNA; test: Integrated proviral HIV-1 DNA by Alu-PCR in LC5-RIC cells; assay type: cell-based; conditions: HIV-1LAI, 48 h, concentrations >2x IC90, normalized to DMSO
# Description: Quantitative analysis of integrated copies of HIV proviral DNA by Alu-PCR was performed essentially as described in[46]. Briefly, LC5-RIC cells seeded at a density of 100,000 cells per well in 12-well plates and incubated for 24 h were exposed to test compounds and HIV-1LAI virus inoculum at an MOI of 0.5 and incubated for further 48 h at 37 °C, 5% CO2. Subsequently, cells were harvested and genomic DNA (gDNA) was extracted using the QIAamp DNA Mini Kit (QIAGEN) according to the manufacturer’s protocol. The relative amount of integrated proviral HIV-1 DNA was determined by two-step Alu-PCR[46]. The relative amounts of integrated proviral HIV-1 DNA in treated versus untreated samples were calculated by the 2^(−ΔΔCt) method, with ΔCT values representing CT (HIV) - CT (β-globin) for each sample and ΔΔCT values representing values of treated samples normalized to untreated samples.
# [5] = Human immunodeficiency virus 1, read-out: IC50, half maximal inhibitory concentration
# [6] = Human immunodeficiency virus 1, LC5-RIC cells exposed to HIV-1LAI, infectious virus production, mean ± SD, read-out: IC50, half maximal inhibitory concentration
Compound,activity against HIV-2 (HIV-2),IC50 (HIV-1LAI [3]; [5]) [nM],IC50 (HIV-1LAI [3]; [6]) [nM],reduction of levels of integrated proviral DNA [4] [%],further results
"COc1oc([C@H]2C/C(=C/C(C)=C/c3ccc([N+](=O)[O-])cc3)CO2)c(C)c(=O)c1C [compound 1, Aureothin]",,,,,"IC50 (HIV-1LAI [1]; read-out: IC50, half maximal HIV-inhibitory concentration): 11.7 ± 1.37 nM; IC90 (HIV-1LAI [1]; read-out: IC90, 90% HIV-inhibitory concentration): 45 ± 3.33 nM; loss of anti-HIV-activity compared to the non-illuminated controls (HIV-1LAI [2]): ≥ 50%; IC50 (HIV-1LAI [3]; LC5-RIC cells exposed to HIV-1LAI, infectious virus production, mean ± SD, read-out: IC50, half maximal inhibitory concentration): 5.3 ± 0.4 nM; IC90 (HIV-1LAI [3]; read-out: IC90, 90% inhibitory concentration, LC5-RIC cells exposed to HIV-1LAI, infectious virus production, mean ± SD): 26.8 ± 2.54 nM; CC50 (LC5-RIC cells): > 10000 nM"
Enfuvirtide,ineffective against HIV-2,,,,
CC(C)(C)NC(=O)[C@@H]1C[C@@H]2CCCC[C@@H]2CN1C[C@@H](O)[C@H](Cc1ccccc1)NC(=O)[C@H](CC(N)=O)NC(=O)c1ccc2ccccc2n1 [Saquinavir],,~10,,,
COc1oc([C@H]2C/C(=C/C(C)=C/C(C)=C/C(C)=C/c3ccc([N+](=O)[O-])cc3)CO2)c(C)c(=O)c1C [Neoaureothin],,,2.2 ± 0.06,,
C[C@@H]1CCO[C@H]2Cn3cc(C(=O)NCc4ccc(F)cc4F)c(=O)c(O)c3C(=O)N12 [Dolutegravir],,~1,,> 90,
O=C1Nc2ccc(Cl)cc2[C@@](C#CC2CC2)(C(F)(F)F)O1 [Efavirenz],ineffective against HIV-2,,~1,> 90,

# From publication PMC6987146, “Potent inhibition of HIV replication in primary human cells by novel synthetic polyketides inspired by Aureothin” (Scientific Reports, 2020)
